Experimental findings from ChEMBL document CHEMBL1201862, “PubChem BioAssay data set” (2004) are described below.

SMILES strings stand for the structures. Values joined by “and” are separate entries in the source; they are usually repeats but may differ in a detail not shown here. Equal entries are not always repeated.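 Test compounds were applied to cells in 96-well plates for 48 hours at 5 doses. Abbreviation: GI50, concentration required for 50% inhibition of growth.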 Active and inactive are the calls of the source. Rule as the data show it: active = GI50 up to about 1.1 µM and inactive = higher.

Some test systems named below: CCRF-CEM; DU-145; HCC 2998; HCT-15; HT-29; K562; MCF7; SK-MEL-5; SR; T47D; UO-31; OVCAR-4; RPMI-8226; SF-268; SF-295; SF-539; SK-OV-3; UACC-62; HOP-92.
Assay in all cases: growth of human tumour cells (NCI), 48 h

In the case of `COc1ccc(-c2nc(SC)n(C3OC(COC(C)=O)C(OC(C)=O)C(OC(C)=O)C3OC(C)=O)c(=O)c2C#N)cc1` (stereo unspecified), the GI50 in the test on CCRF-CEM is > 100 µM (inactive); with DU-145 it was > 100 µM (inactive); with HCC 2998, > 100 µM (inactive); in the test on HCT-15 it was greater than 100 µM; in the test with HT-29, > 100 µM (inactive); with K562 it was > 100 µM (inactive). In addition, the GI50 in the test with MCF7 was > 100 µM (inactive); in the test with SK-MEL-5 it was > 100 µM (inactive); in the test on SR it was > 100 µM (inactive); in the test with T47D, 95.7 µM (inactive); with UO-31, 27 µM (inactive) and 25.6 µM (inactive).
As to `Cc1ccc(CC2(OCCN(C)C)CCC(C(C)(C)C)CC2)cc1` (stereo unspecified), the GI50 is 2.41 µM (inactive) in the test with CCRF-CEM; 3.78 µM (inactive) with DU-145; 1.98 µM (inactive) in the test on HCC 2998; 3.86 µM with HCT-15; 2.13 µM (inactive) in the test on HT-29; 1.71 µM (inactive) with K562. The GI50 in the test with MCF7 was 2.43 µM (inactive); with OVCAR-4, 4.16 µM (inactive); in the test on RPMI-8226, 1.84 µM (inactive); in the test on SF-268 it was 11.5 µM (inactive); with SF-295, 5.22 µM (inactive); in the test on SF-539, 1.81 µM (inactive). Moreover, the GI50 with SK-MEL-5 is 1.58 µM (inactive); with SK-OV-3 it was 8.17 µM (inactive); with SR, 2.04 µM (inactive); in the test with T47D it was 2.87 µM (inactive); in the test with UACC-62, 2.15 µM (inactive); with UO-31, 3.49 µM (inactive).
`CNCCN[C@@H]1c2cc3c(cc2[C@@H](c2cc(OC)c(O)c(OC)c2)[C@H]2C(=O)OC[C@@H]21)OCO3`: the GI50 was 0.0138 µM (active) in the test with CCRF-CEM; 0.27 µM (active) in the test with DU-145; 0.474 µM (active) with HCC 2998; 3.21 µM in the test with HCT-15; 0.494 µM (active) with HT-29; 0.177 µM (active) in the test on K562. Moreover, the GI50 with MCF7 was 0.0296 µM (active); with OVCAR-4, 5.3 µM (inactive); in the test with RPMI-8226, 0.0604 µM (active); in the test on SF-268 it was 0.258 µM (active); in the test on SF-295 it was 0.0973 µM (active); in the test on SF-539, 0.0678 µM (active). Moreover, the GI50 was 0.148 µM (active) in the test with SK-MEL-5; 0.264 µM (active) in the test with SK-OV-3; 0.0122 µM (active) in the test on SR; 0.138 µM (active) with T47D; 0.132 µM (active) with UACC-62; 1.32 µM (inactive) in the test on UO-31.
For `COc1cc(OC)c(NC2=NCCO2)cc1Cl`, the GI50 in the test with CCRF-CEM is 54 µM (inactive); in the test on DU-145, 38.2 µM (inactive); in the test with HCC 2998, 23.8 µM (inactive); with HCT-15 it was 33.9 µM; in the test on HT-29, 23.5 µM (inactive); in the test with K562, 83.9 µM (inactive). The GI50 with MCF7 was 49.1 µM (inactive); in the test on OVCAR-4 it was > 100 µM (inactive); with RPMI-8226 it was 46.8 µM (inactive); with SF-268, 39.7 µM (inactive); in the test on SF-295, 82.8 µM (inactive); in the test with SF-539 it was 25.5 µM (inactive). The GI50 in the test with SK-MEL-5 is 23.1 µM (inactive); in the test on SR, 27.4 µM (inactive); with T47D, 54.5 µM (inactive); in the test on UACC-62, 60.7 µM (inactive); in the test on UO-31, 91.6 µM (inactive).
Regarding `Cc1cc(NC(=O)C(=O)Cc2cnc3ccccc3n2)c(S(=O)(=O)O)cc1Cl`, the GI50 is > 100 µM (inactive) in the test on CCRF-CEM; > 100 µM (inactive) with DU-145; > 100 µM (inactive) in the test on HCC 2998; greater than 100 µM in the test with HCT-15; > 100 µM (inactive) with HOP-92; > 100 µM (inactive) in the test on HT-29. In addition, the GI50 in the test with K562, in the test with MCF7, in the test on OVCAR-4, with RPMI-8226, in the test with SF-268 and with SF-295 was > 100 µM (inactive) throughout. Further, the GI50 in the test on SF-539, with SK-MEL-5, with SK-OV-3, in the test with T47D, with UACC-62 and in the test on UO-31 was > 100 µM (inactive) in each case.
`CCOC(=O)C1=CC(C)(C(=O)OCC)Nc2c(nc(SC)n(C)c2=O)N1` (stereo unspecified): the GI50 with CCRF-CEM was > 10 µM (inactive); in the test with DU-145, > 10 µM (inactive); in the test on HCC 2998, > 10 µM (inactive); in the test with HCT-15 it was greater than 10 µM; in the test with HOP-92, > 10 µM (inactive); in the test on HT-29, > 10 µM (inactive). Also, the GI50 with K562, in the test on MCF7, in the test on OVCAR-4, in the test with RPMI-8226, in the test with SF-268 and in the test with SF-295 was > 10 µM (inactive) in each case. Moreover, the GI50 in the test with SF-539, in the test with SK-MEL-5, in the test with SK-OV-3, with T47D and in the test with UO-31 was > 10 µM (inactive) each time.
For the compound `COc1ccc(OC)c(C(=O)c2cccc(C(=O)c3cc(OC)ccc3OC)n2)c1`, the GI50 in the test on CCRF-CEM is 46.8 µM (inactive); in the test on DU-145 it was 93.1 µM (inactive); in the test on HCC 2998, 46.9 µM (inactive); in the test on HCT-15, 33.1 µM; with HT-29, 35.7 µM (inactive); in the test on K562 it was 22.3 µM (inactive). Further, the GI50 in the test on MCF7 was 26.5 µM (inactive); in the test on OVCAR-4, > 100 µM (inactive); with SF-268, 63.4 µM (inactive); in the test with SF-295, 29.9 µM (inactive); in the test with SF-539 it was 28.6 µM (inactive); in the test on SK-MEL-5, 15 µM (inactive). The GI50 is 46.1 µM (inactive) in the test with SK-OV-3; 32.7 µM (inactive) in the test with SR; 29.6 µM (inactive) in the test with T47D; 31.1 µM (inactive) with UACC-62; 17.9 µM (inactive) in the test with UO-31.
`Nc1ccccc1C#CC(=O)c1cccc(C(F)(F)F)c1`: the GI50 in the test on CCRF-CEM is 0.867 µM (active); in the test on DU-145 it was 3.24 µM (inactive); in the test on HOP-92, 1.99 µM (inactive); in the test on HT-29, 4.16 µM (inactive); in the test with K562, 3.01 µM (inactive); in the test on MCF7, 2.89 µM (inactive). The GI50 in the test on OVCAR-4 was 2.22 µM (inactive); in the test with RPMI-8226, 2.3 µM (inactive); in the test with SF-268 it was 2.2 µM (inactive); with SF-295 it was 15.7 µM (inactive); with SF-539, 3.18 µM (inactive); in the test on SK-MEL-5, 2.35 µM (inactive). For the same compound, the GI50 in the test on SK-OV-3 was 15.3 µM (inactive); with SR it was 2.27 µM (inactive); with T47D, 4.03 µM (inactive); in the test with UACC-62 it was 1.86 µM (inactive); in the test with UO-31 it was 1.29 µM (inactive).
As for `CCCCCC/C=C\CCCCCCCCCc1c(O)c(OC)cc(O)c1CN(C)C`, the GI50 was 0.887 µM (active) in the test on CCRF-CEM; 17.9 µM (inactive) in the test on DU-145; 3.01 µM in the test with HCT-15; 4.44 µM (inactive) in the test on HT-29; 1.73 µM (inactive) in the test on K562; 2.55 µM (inactive) with MCF7. The GI50 is 1.47 µM (inactive) in the test on OVCAR-4; 2.44 µM (inactive) in the test with RPMI-8226; > 10 µM (inactive) in the test on SF-268; 5.38 µM (inactive) in the test with SF-295; 5.3 µM (inactive) in the test with SF-539; 5.41 µM (inactive) with SK-MEL-5. The GI50 in the test on SK-OV-3 was 14.9 µM (inactive); in the test with SR it was 0.692 µM (active); in the test on T47D, 1.76 µM (inactive); in the test with UACC-62 it was 10.6 µM (inactive); with UO-31, 4.21 µM (inactive).
Take `Cc1cc(N(C)C)ccc1/N=N/c1ccc2ncccc2c1`: the GI50 with CCRF-CEM is 40 µM (inactive); with DU-145 it was > 100 µM (inactive); with HCT-15 it was 40.6 µM; in the test with HOP-92 it was > 100 µM (inactive); in the test on HT-29, 35.3 µM (inactive); with K562, 29.8 µM (inactive). The GI50 in the test with MCF7 was 20.3 µM (inactive); with RPMI-8226, 20.2 µM (inactive); with SF-268, > 100 µM (inactive); with SF-295 it was > 100 µM (inactive); in the test with SF-539, > 100 µM (inactive); in the test on SK-MEL-5, 17.2 µM (inactive). The GI50 in the test with SK-OV-3 is > 100 µM (inactive); with SR, 44.4 µM (inactive); in the test with T47D it was 16.9 µM (inactive); with UACC-62 it was > 100 µM (inactive); with UO-31 it was > 100 µM (inactive).
`CCOP(=O)(OCC)C(Cc1ccc(Cl)cc1)NS(=O)(=O)c1ccc(C)cc1` (stereo unspecified): the GI50 was > 100 µM (inactive) in the test with CCRF-CEM; > 100 µM (inactive) in the test on DU-145; > 100 µM (inactive) in the test with HCC 2998; greater than 100 µM in the test on HCT-15; > 100 µM (inactive) in the test with HOP-92; > 100 µM (inactive) with HT-29. Besides, the GI50 was > 100 µM (inactive) in the test on K562; > 100 µM (inactive) in the test with MCF7; > 100 µM (inactive) with OVCAR-4; 98.9 µM (inactive) in the test with RPMI-8226; > 100 µM (inactive) with SF-268; > 100 µM (inactive) in the test with SF-295. The GI50 in the test on SF-539, with SK-MEL-5, in the test on SK-OV-3, in the test with T47D and in the test with UACC-62 was > 100 µM (inactive) throughout.
Regarding `O=S(=O)(O)c1cc(O)c2c(O)c(/N=N/c3cccc4ccccc34)c(S(=O)(=O)O)cc2c1`, the GI50 is > 100 µM (inactive) with DU-145; greater than 100 µM in the test with HCT-15; > 100 µM (inactive) in the test with HOP-92; > 100 µM (inactive) in the test on HT-29; > 100 µM (inactive) in the test with K562; > 100 µM (inactive) in the test on MCF7. Further, the GI50 in the test with OVCAR-4, in the test with RPMI-8226, with SF-268, in the test on SF-295, with SF-539 and in the test with SK-MEL-5 was > 100 µM (inactive) each time. Also, the GI50 with SK-OV-3, in the test on SR, in the test with T47D, with UACC-62 and in the test on UO-31 was > 100 µM (inactive) throughout.
